Data reported in the NIST ThermoML archive (doi:10.1016/j.jct.2015.07.048).

Experiment: xn = mol fraction of the nth substance listed
Details: 100 kPa, Liquid; for viscosity: Cone and plate viscometry; for electrical conductivity: Direct current cell with electrodes; for mass density: Vibrating tube method

CCCn1cc[n+](C)c1.O=S(=O)([N-]S(=O)(=O)C(F)(F)F)C(F)(F)F + O=C1CCCO1
Details | electrical conductivity [S/m] | mass density [kg/m3] | viscosity [mPa·s]
293.15 K, x1 = 0.05 | 1.04 | 1185.12 | –
293.15 K, x1 = 0.0999 | – | 1229.6 | –
293.15 K, x1 = 0.1 | 1.37 | – | 3.42
293.15 K, x1 = 0.15 | 1.45 | – | 4.3
293.15 K, x1 = 0.1999 | 1.37 | 1295.75 | 5.28
293.15 K, x1 = 0.2912 | 1.2 | 1338.94 | –
293.15 K, x1 = 0.2996 | – | – | 8.1
293.15 K, x1 = 0.4005 | 0.89 | 1377.51 | 11.48
293.15 K, x1 = 0.4986 | 0.707 | 1403.93 | 15.9
293.15 K, x1 = 0.6 | 0.595 | 1425.6 | 21.71
293.15 K, x1 = 0.6997 | 0.498 | 1442.85 | 28.23
293.15 K, x1 = 0.7998 | 0.428 | 1457.11 | 35.85
293.15 K, x1 = 0.8818 | 0.387 | 1467.07 | 43.07
293.15 K, x1 = 1 | 0.355 | 1479.32 | 54.19
298.15 K, x1 = 0.05 | 1.13 | 1180.18 | –
298.15 K, x1 = 0.0999 | – | 1224.68 | –
298.15 K, x1 = 0.1 | 1.5 | – | 3.16
298.15 K, x1 = 0.15 | 1.6 | – | 3.94
298.15 K, x1 = 0.1999 | 1.52 | 1290.81 | 4.75
298.15 K, x1 = 0.2912 | 1.38 | 1333.98 | –
298.15 K, x1 = 0.2996 | – | – | 7.17
298.15 K, x1 = 0.4005 | 1.1 | 1372.56 | 9.96
298.15 K, x1 = 0.4986 | 0.87 | 1398.93 | 13.62
298.15 K, x1 = 0.6 | 0.692 | 1420.58 | 18.38
298.15 K, x1 = 0.6997 | 0.604 | 1437.83 | 23.68
298.15 K, x1 = 0.7998 | 0.526 | 1452.07 | 29.72
298.15 K, x1 = 0.8818 | 0.472 | 1462.02 | 35.46
298.15 K, x1 = 1 | 0.435 | 1474.24 | 43.94
303.15 K, x1 = 0.05 | 1.22 | 1175.2 | –
303.15 K, x1 = 0.0999 | – | 1219.69 | –
303.15 K, x1 = 0.1 | 1.63 | – | 2.92
303.15 K, x1 = 0.15 | 1.75 | – | 3.6
303.15 K, x1 = 0.1999 | 1.67 | 1285.84 | 4.3
303.15 K, x1 = 0.2912 | 1.56 | 1329.01 | –
303.15 K, x1 = 0.2996 | – | – | 6.31
303.15 K, x1 = 0.4005 | 1.22 | 1367.63 | 8.69
303.15 K, x1 = 0.4986 | 1.02 | 1394.03 | 11.81
303.15 K, x1 = 0.6 | 0.796 | 1415.71 | 15.67
303.15 K, x1 = 0.6997 | 0.714 | 1432.97 | 19.81
303.15 K, x1 = 0.7998 | 0.629 | 1447.22 | 24.68
303.15 K, x1 = 0.8818 | 0.564 | 1457.17 | 28.84
303.15 K, x1 = 1 | 0.521 | 1469.4 | 35.92
308.15 K, x1 = 0.05 | 1.31 | 1170.18 | –
308.15 K, x1 = 0.0999 | – | 1214.67 | –
308.15 K, x1 = 0.1 | 1.76 | – | 2.68
308.15 K, x1 = 0.15 | 1.9 | – | 3.3
308.15 K, x1 = 0.1999 | 1.85 | 1280.78 | 3.91
308.15 K, x1 = 0.2912 | 1.75 | 1323.97 | –
308.15 K, x1 = 0.2996 | – | – | 5.67
308.15 K, x1 = 0.4005 | 1.44 | 1362.59 | 7.71
308.15 K, x1 = 0.4986 | 1.27 | 1389.01 | 10.31
308.15 K, x1 = 0.6 | 0.992 | 1410.7 | 13.51
308.15 K, x1 = 0.6997 | 0.827 | 1427.98 | 17.13
308.15 K, x1 = 0.7998 | 0.737 | 1442.24 | 21
308.15 K, x1 = 0.8818 | 0.667 | 1452.2 | 24.51
308.15 K, x1 = 1 | 0.611 | 1464.43 | 30
313.15 K, x1 = 0.05 | 1.42 | 1165.15 | –
313.15 K, x1 = 0.0999 | – | 1209.63 | –
313.15 K, x1 = 0.1 | 1.9 | – | 2.49
313.15 K, x1 = 0.15 | 2.06 | – | 3.06
313.15 K, x1 = 0.1999 | 2.02 | 1275.71 | 3.57
313.15 K, x1 = 0.2912 | 1.94 | 1318.9 | –
313.15 K, x1 = 0.2996 | – | – | 5.1
313.15 K, x1 = 0.4005 | 1.64 | 1357.55 | 6.92
313.15 K, x1 = 0.4986 | 1.44 | 1383.98 | 9.13
313.15 K, x1 = 0.6 | 1.15 | 1405.67 | 11.92
313.15 K, x1 = 0.6997 | 1.03 | 1422.96 | 14.78
313.15 K, x1 = 0.7998 | 0.849 | 1437.25 | 17.93
313.15 K, x1 = 0.8818 | 0.789 | 1447.22 | 20.73
313.15 K, x1 = 1 | 0.71 | 1459.44 | 25.32
318.15 K, x1 = 0.05 | 1.52 | 1159.99 | –
318.15 K, x1 = 0.0999 | – | 1204.53 | –
318.15 K, x1 = 0.1 | 2.03 | – | 2.3
318.15 K, x1 = 0.15 | 2.22 | – | 2.8
318.15 K, x1 = 0.1999 | 2.24 | 1270.69 | 3.25
318.15 K, x1 = 0.2912 | 2.13 | 1313.92 | –
318.15 K, x1 = 0.2996 | – | – | 4.6
318.15 K, x1 = 0.4005 | 1.92 | 1352.58 | 6.2
318.15 K, x1 = 0.4986 | 1.68 | 1379.05 | 8.06
318.15 K, x1 = 0.6 | 1.41 | 1400.79 | 10.43
318.15 K, x1 = 0.6997 | 1.21 | 1418.09 | 12.8
318.15 K, x1 = 0.7998 | 0.997 | 1432.4 | 15.49
318.15 K, x1 = 0.8818 | 0.883 | 1442.41 | 17.84
318.15 K, x1 = 1 | 0.813 | 1454.63 | 21.58
323.15 K, x1 = 0.05 | 1.64 | 1154.83 | –
323.15 K, x1 = 0.0999 | – | 1199.33 | –
323.15 K, x1 = 0.1 | 2.17 | – | 2.13
323.15 K, x1 = 0.15 | 2.38 | – | 2.59
323.15 K, x1 = 0.1999 | 2.41 | 1265.59 | 3.01
323.15 K, x1 = 0.2912 | 2.33 | 1308.85 | –
323.15 K, x1 = 0.2996 | – | – | 4.21
323.15 K, x1 = 0.4005 | 2.1 | 1347.55 | 5.59
323.15 K, x1 = 0.4986 | 1.9 | 1374.04 | 7.24
323.15 K, x1 = 0.6 | 1.64 | 1395.82 | 9.27
323.15 K, x1 = 0.6997 | 1.39 | 1413.16 | 11.31
323.15 K, x1 = 0.7998 | 1.15 | 1427.49 | 13.71
323.15 K, x1 = 0.8818 | 1.03 | 1437.5 | 15.72
323.15 K, x1 = 1 | 0.923 | 1449.73 | 18.82
